Measured values from patent US20150328116A1, “Oral Care Composition Containing Ionic Liquids” (COLGATE-PALMOLIVE COMPANY, priority 2012, published 2015).
“Also recorded” adds a separate entry of the source. Like-named read-outs stand apart in the source and are kept apart here. Blank lines part the entries; values can stand above or below the compound they belong to.

Tests used:
[1] = test system: 3-day old biofilm of artificial mouth consortium of bacteria (A. naeslundii, S. oralis, V. parvula, L. casei, F. nucleatum) and S. mutans; experiment: In vitro removal of a 3-day old biofilm (optical density reduction); type: cell-based; conditions: for Percent Biofilm Removal (BMIM Cationic Series): […] BMIM-based ionic liquids in base prototype mouth rinse of Table 1
Dental plaque samples = experiment: Dissolution of plaque (visual pellet after centrifugation); conditions: water-insoluble plaque, ionic liquid added, vortex mixed at room temperature, centrifuged at 13,000 g
A. viscosus [2] = experiment: Growth inhibition of A. viscosus (optical density over time); type: cell-based
Description: DMIM chloride was incorporated into a prototype mouth rinse as illustrated in Table 9. […] The growth inhibition was measured as a change in optical density over time.

A. viscosus [3] = experiment: Short Interval Kill Test (SIKT); type: cell-based; conditions: 0.3, 0.6 and 1 wt % in prototype mouth rinse of Table 9
Description: SIKT determines the kill effect of a test article at a predetermined exposure time. […] The reaction was neutralized after 30 seconds by adding a neutralizing broth. The reaction mixture was further diluted and plated on MCA (Microbial Count Agar) plates for viable bacterial count.

A. viscosus [4] = experiment: Minimum inhibitory concentration; type: cell-based; conditions: Actinomyces viscosus; 24 hours incubation, optical density at 610 nm
[5] = In-vitro removal of tooth stains / teeth whitening (L*a*b*); set-up: species or system human; conditions: 1M in prototype whitening mouthwash base (Table 7); teeth soaked one hour
[6] = […] ionic liquid in base prototype mouth rinse of Table 1, 15 minutes, relative to water
[7] = direct comparison between EMIM and BMIM with different anions

Compound: 1-butyl-3-methylimidazolium methyl sulfate [BMIM MeSO4]
Percent Biofilm Removal (BMIM Cationic Series) [1]: 53.9% | Percent Removal of a 3-day Oral Biofilm [1, 6]: 53.9%

Compound: CCCCn1cc[n+](C)c1.[Br-] [BMIM Br, 1-butyl-3-methylimidazolium bromide]
Percent Biofilm Removal (BMIM Cationic Series) [1]: 48.0% | Percent Removal of a 3-day Oral Biofilm [1, 6]: 48.0% | Percent Biofilm Removed (EMIM vs BMIM comparison) [1, 7]: 48.0%

Compound: CCn1cc[n+](C)c1.[Cl-] [EMIM Cl, 1-ethyl-3-methylimidazolium chloride]
Percent Biofilm Removed (EMIM vs BMIM comparison) [1]: 44.3% | Percent Removal of a 3-day Oral Biofilm [1]: 44.3%

Compound: CCn1cc[n+](C)c1.[Br-] [EMIM Br, 1-ethyl-3-methylimidazolium bromide]
plaque dissolution (size of the plaque pellet) (Dental plaque samples): size of the plaque pellet is reduced | Percent Removal of a 3-day Oral Biofilm [1, 6]: 48.6% | Percent Biofilm Removed (EMIM vs BMIM comparison) [1, 7]: 48.6%

Compound: tris(2-hydroxyethyl)methylammonium sulfate [MTEOA MeSO4]
Percent Biofilm Removed (Other Ionic Liquids) [1]: 52.8% | Percent Removal of a 3-day Oral Biofilm [1]: 52.8%

Compound: 1-butyl-3-methylimidazolium octyl sulfate [BMIM Octyl SO4]
Percent Biofilm Removal (BMIM Cationic Series) [1]: 58.6% | Percent Removal of a 3-day Oral Biofilm [1, 6]: 58.6%

MIC (A. viscosus [4]): 125 µg/mL
Compound: CCCCCCCCCCn1cc[n+](C)c1.[Cl-] [DMIM Cl, 1-decyl-3-methylimidazolium chloride]
Percent Removal of a 3-day Oral Biofilm [1, 6]: 57.3% | biofilm removal, comparison in words ([1]; comment on Tables 2 and 6, listed as DMIM chloride): significantly more effective in removing biofilm than EMIM chloride and BMIM chloride; also recorded: most effective in removing biofilm | Percent Biofilm Removed (Other Ionic Liquids) ([1]; protocol of Example 2): 57.3% | growth inhibition of A. viscosus (A. viscosus [2]; 0.312 wt % in prototype mouth rinse): Growth inhibition of A.viscosus is maintained | growth inhibition of A. viscosus (A. viscosus [2]; 1 wt % in prototype mouth rinse (Table 9), versus mouthwash containing cetylpyridinium chloride): greater growth inhibition of A. viscosus than a mouthwash containing cetylpyridinium chloride | time to kill A. viscosus (A. viscosus [3]): ≤ 30 s

Compound: C=CCn1cc[n+](C)c1.[Cl-] [AMIM Cl, 1-allyl-3-methylimidazolium chloride]
Percent Biofilm Removed (Other Ionic Liquids) [1]: 44.8% | Percent Removal of a 3-day Oral Biofilm [1]: 44.8% | biofilm removal, comparison in words [1]: effective in removing biofilm

Compound: CCn1cc[n+](C)c1.Cc1ccc(S(=O)(=O)[O-])cc1 [EMIM Tosylate, 1-ethyl-3-methylimidazolium tosylate]
Percent Removal of a 3-day Oral Biofilm [1, 6]: 59.5%

Compound: COS(=O)(=O)[O-].Cc1cc[n+](C)n1C [MMMPz MeSO4, 1,2,3-trimethylpyrazolium (MMMPZ) methyl sulfate]
Percent Removal of a 3-day Oral Biofilm [1, 6]: 57.8% | Percent Biofilm Removed (Other Ionic Liquids) ([1]; protocol of Example 2): 57.9%

Compound: 1-ethyl-3-methylimidazolium diethyl phosphate [EMIM diethyl PO4]
Percent Removal of a 3-day Oral Biofilm [1, 6]: 52.7%

Compound: 1-ethyl-3-methylimidazolium ethyl sulfate [EMIM Ethyl SO4]
Percent Removal of a 3-day Oral Biofilm [1]: 48.1% | ΔE [5]: 4.41 | ΔL [5]: 3.40 | ΔW [5]: −2.99

Compound: CC(=O)[O-].CCn1cc[n+](C)c1 [EMIM OAc, 1-ethyl-3-methylimidazolium acetate]
Percent Removal of a 3-day Oral Biofilm [1, 6]: 52.1% | Percent Biofilm Removed (EMIM vs BMIM comparison) [1, 7]: 52.1%

Compound: CCCCn1cc[n+](C)c1.[Cl-] [BMIM Cl, 1-butyl-3-methylimidazolium chloride]
Percent Biofilm Removal (BMIM Cationic Series) [1]: 43.8% | Percent Removal of a 3-day Oral Biofilm [1, 6]: 43.8% | Percent Biofilm Removed (EMIM vs BMIM comparison) [1, 7]: 43.8%

Compound: CC(=O)[O-].CCCCn1cc[n+](C)c1 [BMIM OAc, 1-butyl-3-methylimidazolium acetate]
Percent Biofilm Removal (BMIM Cationic Series) [1]: 55.8% | Percent Removal of a 3-day Oral Biofilm [1, 6]: 55.9% | Percent Biofilm Removed (EMIM vs BMIM comparison) [1, 7]: 55.8%

Compound: 1,2,3-trimethylimidazolium methyl sulfate [TMIM MeSO4]
Percent Biofilm Removed (Other Ionic Liquids) [1]: 51.8% | Percent Removal of a 3-day Oral Biofilm [1]: 51.8%
